Laboratory results from US9927437B2, “Treating neurodegenerative disease” (THE BRIGHAM AND WOMEN'S HOSPITAL, INC., priority 2013, dated 2018).

Test system: primary astrocytes
Assay: Activation of cultured primary astrocytes, mRNA expression
Format: cell-based, mouse
Conditions: for transcriptional response of astrocytes to LPS/IFNγ: 1 h pre-treatment (PDMP 25 μM; LacCer 10 μM), LPS 100 ng/ml and IFNγ 100 Units/ml, 6 h
Experimental: FIGS. 3a-m. LacCer produced by B4GALT6 acts in an autocrine manner to boost astrocyte activation. Cultured astrocytes were pre-treated for 1 h with PDMP (25 μM), LacCer (10 μM), both (LacCer+PDMP), or vehicle (vehicle), followed by activation with lipopolysaccharide (100 ng/ml) and Interferon-γ (100 Units/ml) (LPS/IFNγ) or left un-treated (control). (a) Heatmap depicting mRNA expression, as detected by Nanostring nCounter analysis, in astrocytes stimulated with LPS/IFNγ. Representative data of three independent experiments. (b) Histogram presentation of the normalized gene expression presented in (a), statistical analysis by one-way ANOVA followed by Tukey post-hoc analysis. (c-i) The expression of B4galt5 (shB4galt5), B4galt6 (shB4galt6) or non-targeting shRNA (ShControl) in C8-D30 astrocytes was knocked-down using verified shRNA (n≥4). (c) qRT analysis of B4galt5 and B4galt6 mRNA expression. (d-f) astrocytes were activated as in (a) and mRNA expression for (d) H2-Aa, (e) Ccl5 and (f) Cxcl10 was determined; expression is presented relative to house keeping gene (Gapdh) (n≥4). (g) Schematic map of the astrocyte-specific shRNA lentiviral vector. […] NOD mice were injected i.c.v. with 1×10^7 IU of shControl, shB4galt5 or shB4galt6 lentivirus, at day 35 after EAE induction (progressive phase). n=10 mice per group (h, i) 10 days after i.c.v. injection experiment was terminated and (h) b4galt5 and b4galt6 expression levels were determined by qPCR in astrocytes isolated from naïve or EAE NOD mice; expression normalized to gapdh and presented relative to that of cells from naïve mice. Representative data of two independent experiments, Statistical analysis by one-way ANOVA, followed by Tukey post-hoc analysis. (i) LacCer levels were quantified of in the CNS of naïve or EAE NOD mice treated as shown in (j). Statistical analysis by one-way ANOVA, followed by Tukey post-hoc analysis. (j) EAE clinical scores. Representative data of two independent experiments. Statistical analysis as in (FIG. 1a). (k) Cultured primary astrocytes were pre-treated for 1 h with PDMP (25 μM), LacCer (10 μM), both (LacCer+PDMP), or vehicle control (vehicle), followed by activation with LPS/IFNγ for 45 min, or left un-treated (control, Con). IRF-1 and Lamin B expression in the nuclear fraction analyzed by western blot and the degree of IRF-1 translocation to the nucleus was assessed by the ratio between the expression of IRF-1 and Lamin-B in the nuclear fractions following densitometric quantification on four independent experiments (right panel). Statistical analysis by one-way ANOVA, followed by Tukey post-hoc analysis. (l) ChIP analysis of the interaction of NF-κB, and IRF-1 with the) nos2 promoter in primary cultured astrocytes. Experimental design and data analysis as in (FIG. 4c). Data from two independent experiments (m) qPCR analysis of the expression of nos2, csf2, ccl2, ccl5, il6, and tlr2 in astrocyte cultures established from WT or IRF-1 deficient (IRF-1 KO) mice, pre-treated with LacCer or vehicle, and activated with LPS/IFNγ. […]
FIGS. 14a-g. […] (a) Cultured astrocytes were pre-treated for 1 h with PDMP (25 μM), LacCer (10 μM), both (LacCer+PDMP), or vehicle control (vehicle), followed by activation with LPS/IFNγ for 6 h, or left un-treated (control, Con). mRNA expression was analyzed 6 h following activation. qPCR analysis of the expression of cc/5, csf2, nos2, il6, H2-Aa, and tlr2 presented relative to gapdh. […]

| Compound | transcriptional response of astrocytes to LPS/IFNγ | h2-Aa, ccl5 and cxcl10 expression in B4GALT6 knocked-down astrocytes (astrocytes with shB4galt6, PDMP pre-treatment, LPS/IFNγ 6 h) | astrocyte activation, LacCer added to PDMP (LacCer 10 μM + PDMP 25 μM, LPS/IFNγ) |
| --- | --- | --- | --- |
| CCCCCCCCCC(=O)N[C@H](CN1CCOCC1)[C@H](O)c1ccccc1 [PDMP, D-threo-1-phenyl-2-decanoylamino-3-morpholino-1-propanol] | suppressed the transcriptional response | did not further suppress | – |
| lactosylceramide [LacCer] | boosted the response | – | overcame the suppressive effects of PDMP |
